Test results taken from ChEMBL document CHEMBL3886363, “Phenyl-tetrahydroisoquinoline derivatives” (2015).
Several values for one entry are separate records, joined by “and”; a condition that tells them apart may be missing. Equal values may be shown once.

What was measured:
[1] = target: T1, Cytochrome P450 11B1, mitochondrial (Homo sapiens, UniProt P15538); assay: (§1) Cellular Enzyme Assay: G-402 cells expressing CYP11 constructs were established as described above and maintained in McCoy's 5a Medium Modified, ATCC Catalog No. 30-2007 containing 10% FCS and 400 ug/ml G418 (Geneticin) at 37° C. under an atmosphere of 5% CO2/95% air. […] For assaying enzymatic activity, cells were plated onto 96 well plates and incubated for 16 h. An aliquot of the supernatant is then transferred and analyzed for the concentration of the expected product (Aldosterone for CYP11B2; Cortisol for CYP11B1). The concentrations of these steroids can be determined using HTRF assays from CisBio analyzing either Aldosterone or Cortisol.; format: cell-based
T1 sequence (P15538 whole entry): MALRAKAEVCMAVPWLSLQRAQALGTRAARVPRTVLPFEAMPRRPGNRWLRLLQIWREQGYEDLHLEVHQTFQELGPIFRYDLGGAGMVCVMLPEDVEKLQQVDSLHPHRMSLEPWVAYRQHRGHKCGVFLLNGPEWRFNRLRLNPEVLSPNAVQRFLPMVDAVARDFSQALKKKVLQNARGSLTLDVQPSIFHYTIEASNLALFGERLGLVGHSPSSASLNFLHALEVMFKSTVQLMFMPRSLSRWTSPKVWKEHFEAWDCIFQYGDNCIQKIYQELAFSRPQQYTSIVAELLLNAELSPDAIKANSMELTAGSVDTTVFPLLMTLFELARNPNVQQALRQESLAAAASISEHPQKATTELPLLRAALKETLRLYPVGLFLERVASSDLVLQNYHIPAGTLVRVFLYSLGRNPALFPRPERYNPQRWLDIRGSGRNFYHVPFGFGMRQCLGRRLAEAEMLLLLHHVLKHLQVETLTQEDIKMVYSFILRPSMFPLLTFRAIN

[2] = target: T2, Cytochrome P450 11B2, mitochondrial (Homo sapiens, UniProt P19099); assay: as §1; format: cell-based
T2 sequence (P19099 whole entry): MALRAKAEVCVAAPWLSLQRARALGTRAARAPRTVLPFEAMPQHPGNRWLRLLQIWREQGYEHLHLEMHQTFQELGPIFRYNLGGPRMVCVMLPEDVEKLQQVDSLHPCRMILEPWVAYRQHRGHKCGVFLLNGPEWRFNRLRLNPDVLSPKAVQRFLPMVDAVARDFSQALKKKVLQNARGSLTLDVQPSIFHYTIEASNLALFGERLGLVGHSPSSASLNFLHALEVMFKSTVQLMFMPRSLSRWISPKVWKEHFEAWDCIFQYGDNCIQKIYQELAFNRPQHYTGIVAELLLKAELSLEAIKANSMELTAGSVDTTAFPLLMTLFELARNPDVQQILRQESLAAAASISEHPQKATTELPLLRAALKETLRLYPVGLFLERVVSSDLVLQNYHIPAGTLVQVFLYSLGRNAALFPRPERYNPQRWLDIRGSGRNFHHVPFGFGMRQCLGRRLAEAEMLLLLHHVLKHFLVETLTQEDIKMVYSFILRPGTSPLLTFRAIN

[3] = target: T2, Cytochrome P450 11B2, mitochondrial; assay: as §1

EC50 [1]	EC50 [2] [nM]	EC50 [3]	SMILES
304 nM and 792 nM	3.1	30.3 nM	CC1(C)Cc2c(-c3ccc(C(F)(F)F)c(F)c3)cncc2C1O (single isomer, unassigned)
		2.2 nM and 12.1 nM	CC1(C)Cc2c(-c3ccc(C#N)cc3)cncc2C1O (single isomer, unassigned)
2700 nM and 1640 nM	30.4	15.2 nM	CC1(C)Cc2c(-c3ccc(C(F)(F)F)cc3)cncc2C1O (single isomer, unassigned)
		5770 nM	CCC(=O)NC1CCc2c(-c3ccc(F)c(C)c3)cncc21 (single isomer, unassigned; form 1)
